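Method: 48-hour compound exposure of cells in 96-well plates, five concentrations, linear interpolation of endpoints. GI50 marks 50% less growth. The concentration for full growth arrest is given as TGI.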
Assays:
Assay in all cases: NCI tumour cell line growth inhibition, 48 h
[1] = tested on: UACC-62 melanoma
[2] = tested on: EKVX NSCLC
[3] = tested on: CCRF-CEM leukemia
[4] = tested on: A498 renal
[5] = tested on: HCT-15 colon
[6] = tested on: RXF 393 renal
[7] = tested on: U251 CNS
[8] = tested on: OVCAR-4 ovarian
[9] = tested on: HOP-62 NSCLC
[10] = tested on: NCI-H460 lung
[11] = tested on: HOP-92 NSCLC
[12] = tested on: NCI/ADR-RES ovarian

| SMILES | TGI [1] [µM] | TGI [2] [µM] | TGI [3] [µM] | TGI [4] [µM] | TGI [5] [µM] | TGI [6] [µM] | TGI [7] [µM] | TGI [8] [µM] | TGI [9] [µM] | TGI [10] [µM] | TGI [11] [µM] | GI50 [1] [µM] | GI50 [3] [µM] | GI50 [4] [µM] | GI50 [11] [µM] | GI50 [7] [µM] | GI50 [9] [µM] | GI50 [12] [µM] | TGI [12] [µM] |
| --- | --- | --- | --- | --- | --- | --- | --- | --- | --- | --- | --- | --- | --- | --- | --- | --- | --- | --- | --- |
| Cc1[nH]n(-c2ccccc2)c(=S)c1C(=O)c1ccccc1 | > 100 | 54.9 | 57 | 44.9 | > 100 | 10.8 | > 100 | > 100 | – | – | – | – | – | – | – | – | – | – | – |
| Cc1c2n(c3ccccc13)CC1C2N(C)OC1(C)C (centres undefined) | > 100 | > 100 | > 100 | – | > 100 | – | – | > 100 | > 100 | > 100 | – | – | – | – | – | – | – | – | – |
| CCC12C=CCN3CC[C@]4(C(=C(C(=O)OC)[C@@H]1Nc1ccn(C5OC(COC(C)=O)C(OC(C)=O)C5OC(C)=O)c(=O)n1)Nc1ccccc14)C32 (some centres undefined) | 6.94 | 14.3 | 13.2 | 10.7 | 6.83 | 6.45 | 7.69 | 3.57 | 8.83 | 8.62 | 8.02 | – | – | – | – | – | – | – | – |
| CC1=NN(C(=O)c2ccc(Cl)cc2)C(=O)/C1=C/c1cccc(O)c1 | > 100 | > 100 | > 100 | > 100 | > 100 | > 100 | > 100 | > 100 | > 100 | > 100 | > 100 | – | – | – | – | – | – | – | – |
| Clc1ccc2c(NCCNc3nc(-c4ccccc4)cc(-c4ccccc4)n3)ccnc2c1 | 3.37 | – | 5.83 | 5.61 | – | – | 3.59 | – | 3.05 | – | 3.14 | 1.85 | 2.32 | 2.15 | 1.61 | 1.96 | 1.61 | 1.77 | 3.6 |
| CCN(CC)CC(C)(C)C(=O)/C=C/c1ccc(C)cc1 | 31.8 | 16.9 | 19.2 | 15.5 | 14.8 | 21.6 | 28.6 | 24.4 | 32.9 | 19.4 | 8.45 | – | – | – | – | – | – | – | – |
| Cc1ccc(N2C(=O)/C(=c3\s/c(=C(/N)O)c(=N)n3-c3ccccc3)SC2=S)cc1 | > 100 | – | > 100 | > 100 | – | – | > 100 | – | > 100 | > 100 | 47.1 | – | – | – | – | – | – | – | – |
| CCC(C)(C)NC1=C(NC(C)=O)C(=O)c2ccccc2C1=O | > 75 | > 75 | 41.3 | – | > 75 | > 75 | > 75 | > 75 | > 75 | > 75 | – | – | – | – | – | – | – | – | – |
| c1ccc2cc3n[se]nc3cc2c1 | > 100 | > 100 | > 100 | – | > 100 | > 100 | > 100 | > 100 | – | – | – | – | – | – | – | – | – | – | – |
| Nc1nc(Cl)c2ncn(Cc3ccccc3CCl)c2n1 | 4.33 | 31.1 | > 100 | 44.3 | 7.45 | – | 13.4 | 6.47 | 62.3 | 36.8 | 31.1 | – | – | – | – | – | – | – | 34.6 |
| CC(C)NC(C)Cc1ccccc1 (centres undefined) | > 100 | > 100 | > 100 | > 100 | > 100 | > 100 | > 100 | > 100 | > 100 | > 100 | > 100 | – | – | – | – | – | – | – | – |
| CC[n+]1[b-](C(C)(C)C)n(/N=C(\C)C(C)(C)C)[b-](C(C)(C)C)[n+]1CC | > 100 | > 100 | > 100 | – | > 100 | > 100 | > 100 | > 100 | > 100 | > 100 | – | – | – | – | – | – | – | – | > 100 |
| CC(C)(C)C1CCC2c3c([nH]c4ccccc34)C3C(=O)N(c4ccc(Br)cc4)C(=O)C3C2C1 (centres undefined) | > 100 | 63.2 | 39.8 | 52.3 | 36.3 | – | – | 41.5 | 39.5 | 38.9 | 49 | – | – | – | – | – | – | – | – |
| C[n+]1c2ccccc2c(NC(CCC(N)=O)C(=O)O)c2ccccc21 (centres undefined) | > 100 | > 100 | – | > 100 | > 100 | > 100 | > 100 | > 100 | > 100 | > 100 | > 100 | – | – | – | – | – | – | – | – |
| CC(O[Si](C)(C)C(C)(C)C)[C@H](NC(=O)OCC(Cl)(Cl)Cl)C(=O)O (some centres undefined) | > 100 | > 100 | > 100 | > 100 | > 100 | > 100 | > 100 | > 100 | > 100 | > 100 | – | – | – | – | – | – | – | – | > 100 |
| CCOc1ccc(N=Cc2cc(OC)c(OC)c(OC)c2)cc1 | > 100 | > 100 | > 100 | > 100 | > 100 | > 100 | > 100 | > 100 | > 100 | > 100 | > 100 | – | – | – | – | – | – | – | – |
| C(/COc1cccnc1)=N\NC1=NCCN1 | > 100 | > 100 | > 100 | > 100 | > 100 | > 100 | > 100 | > 100 | > 100 | > 100 | > 100 | – | – | – | – | – | – | – | – |
| Cc1ccc2c(c1)NC(=O)C(N=[N+]=[N-])(c1ccccc1)C2=O (centres undefined) | 61.3 | 95.3 | > 100 | > 100 | 52.2 | – | 74.6 | > 100 | > 100 | > 100 | 85.2 | – | – | – | – | – | – | – | – |
